In patent publication US8323971B2, “Differentiation of pluripotent cells into primary germ layer progenitors” (Cambridge Enterprise Limited, priority 2006, dated 2012):

Test system: hESCs
Assay: Real time PCR of hESCs after addition of BMP4 in CDM (extra-embryonic differentiation)
Assay type: cell-based, human
Conditions: 10 ng/ml in CDM
Method: hESCs grown in Feeder free and serum free conditions were harvested using 5 mg/ml collagenase IV then plated into plates pre-coated with fibronectin. hESCs were grown for 48 hours in CDM supplemented with Activin (10 ng/ml, RandD systems) and FGF2 (12 ng/ml, RandD systems). To induce extra-embryonic differentiation, hESCs were grown for 5 additional days in CDM supplemented with BMP4 (10 ng/ml, RandD systems). To obtain neuroectoderm progenitors, hESCs were grown in CDM or in CDM-PVA in the presence of SB431542 (10 μM Tocris) and FGF2 (12 ng/ml, RandD systems) for 7 additional days. The resulting cells were grown in non-adherent conditions for 10 days and then plated back for 5 additional days in CDM to obtain fully differentiated neuronal cells. To obtain mesendoderm precursors, hESCs were grown for 3 additional days in CDM-PVA in the presence of SU5402 (10 μM, Calbiochem) and Activin (5 ng/ml, RandD systems). On the fifth day after passaging, the resulting cells were grown in CDM-PVA in the presence of BMP4 (10 ng/ml, RandD systems), FGF2 (20 ng/ml, RandD systems) and Activin (30 ng/ml or 100 ng/ml, RandD systems).
Total RNAs were extracted from hESCs or differentiated progenitors using the RNeasy Mini or Micro Kits (Qiagen). Each sample was treated with RNAse-Free DNAse (Qiagen) in order to avoid DNA contamination. […]

Substance: BMP4: Bone Morphogenetic Protein 4 growth factor
- expression of extra-embryonic markers including GATA6 and H19: strongly enhanced
- level of Oct-4 transcripts (after 16 hours): significant decrease
